Consider one compound from US20240226107A1, “UBIQUITIN-SPECIFIC PROTEASE 1 (USP1) INHIBITOR” (SIMCERE ZAIMING PHARMACEUTICAL CO., LTD., priority 2021, published 2024).

In brackets after ≈: the same amount, converted by molar mass. Read-outs that look alike come from different tables or passages of the source.

A short description of data set [1]: Metabolic stability in vitro in rat hepatocytes. Type of data set: in vitro ADME. The note with it: read-out: Intrinsic clearance.
A short description of data set [2]: Solubility (PBS pH 7.4) of compounds from DMSO solution. Type of data set: physicochemical. As to conditions: aqueous buffer, kinetic from dmso stock, 10 mM DMSO solution into PBS pH 7.4, 25° C., read-out: Calculated solubility. The procedure: The solubility (PBS pH 7.4) of a compound to be tested was determined by LC/MS/MS. 6 μL of 10 mM DMSO solution of the compound to be tested was mixed with 194 μL of DMSO to prepare 300 μM compound solution. In 490 μL of water and acetonitrile (1:1) containing an internal standard, 5 μL of the solution and 5 μL of PBS pH 7.4 solution were mixed to prepare 3 μM standard concentration solution of the sample to be tested. The dilution factor of the standard solution can be adjusted according to the strength of response signals in LC/MS.
To 485 μL of PBS pH 7.4 solution, 15 μL of 10 mM DMSO solution of the compound to be tested was added. […] After shaking, the stir bar was removed, and the sample was transferred to a filter plate and filtered using a vacuum manifold. In 490 μL of water and acetonitrile (1:1) containing an internal standard, 5 μL of filtrate and 5 μL of PBS pH 7.4 solution were mixed to prepare a solution to be tested. The dilution factor can be adjusted according to the solubility value and the strength of response signals in LC/MS.
The resulting samples were determined by LC/MS/MS. The sample solubility was calculated from peak areas of the solution of the compound to be tested and the standard concentration solution, according to the following equation:
[formula] • [Sample] is the solubility of the sample to be tested; • Area ratiosample is the ratio of the peak area of sample in the sample to be tested to the peak area of the internal standard; • INJ VOL STD is the injection volume of the standard concentration solution; • DFsample is the dilution factor of the solution of the sample to be tested; • [STD] is the concentration of the standard concentration solution; • INJ VOLsample is the injection volume of the solution of the sample to be tested; and • Area ratio STD is the ratio of the peak area of sample in the standard concentration solution to the peak area of the internal standard.

A short description of data set [3]: Solubility (PBS pH 7.4) of compound solids. It counts as physicochemical. The note with it: aqueous buffer, thermodynamic from solid, PBS pH 7.4, 25° C. The procedure:
The solubility (PBS pH 7.4) of compound solids to be tested was determined by LC/MS/MS. Approximately 1 mg of each compound powder was accurately weighed into a glass vial, and DMSO was added in a volume of 1 mL per milligram of compound. […] In 490 μL of water and acetonitrile (1:1) containing an internal standard, 5 μL of 1 mg/mL solution and 5 μL of PBS pH 7.4 solution were mixed to prepare 10 μg/mL standard concentration solution of the sample to be tested. Then 10 μL of 10 μg/mL solution was diluted in 90 μL of water and acetonitrile (1:1) containing an internal standard to prepare 1 μg/mL standard concentration solution of the sample to be tested. The dilution factor of the standard solution can be adjusted according to the strength of response signals in LC/MS. Approximately 1 mg of each compound powder was accurately weighed into a glass vial, and PBS pH 7.4 solution was added in a volume of 1 mL per milligram of compound. A stir bar was added to each vial, and the solubility sample vial was shaken at 1100 rpm at 25° C. for 24 h. After shaking, the stir bar was removed, and the sample was transferred to a filter plate and filtered using a vacuum manifold. […]
The resulting samples were determined by LC/MS/MS. The sample solubility was calculated from peak areas of the solution of the compound to be tested and the standard concentration solution, according to the following equation: […]

The target in another data set is CYP2D6 (Homo sapiens (Human), UniProt P10635). The experiment in a line: CYP enzyme inhibition in pooled human liver microsomes (bufuralol hydrochloride). Type of data set: in vitro ADME. On the procedure: (§1) Typical substrate metabolic responses of five major human CYP subtypes (CYP1A2, CYP2C9, CYP2C19, CYP2D6, CYP3A4) were evaluated using 150-donor pooled human liver microsomes (purchased from Corning, Cat. No.: 452117). The influence of different concentrations of each compound to be tested on metabolic responses of phenacetin (CYP1A2), diclofenac sodium (CYP2C9), S-mephenytoin (CYP2C19), bufuralol hydrochloride (CYP2D6), and midazolam (CYP3A4) was determined by liquid chromatography-mass spectrometry (LC/MS/MS). […] Then 200 μL of acetonitrile solution containing 3% formic acid and 40 nM internal standard verapamil was added and centrifuged at 4000 rpm for 50 min. The mixture was cooled on ice for 20 min and centrifuged at 4000 rpm for 20 min to precipitate the protein. Then 200 μL of supernatant was analyzed by LC-MS/MS. The peak area was calculated from the chromatogram. The residual activity ratio (%) was calculated according to the following equation: Peak area ratio=metabolite peak area/internal standard peak area Residual activity ratio (%)=peak area ratio of compounds-to-be-tested group/peak area ratio of blank group The half inhibitory concentration (IC50) for CYP was calculated by Excel XLfit 5.3.1.3.
(In general: Liver microsomes are vesicles of endoplasmic reticulum, rich in cytochrome P450 enzymes.)

Another data set addresses CYP3A4 (Homo sapiens (Human), UniProt P08684). Nature of the data set: CYP enzyme inhibition in pooled human liver microsomes (midazolam). Type of data set: in vitro ADME. On the procedure: as §1

CYP2D6, sequence (P10635 whole entry): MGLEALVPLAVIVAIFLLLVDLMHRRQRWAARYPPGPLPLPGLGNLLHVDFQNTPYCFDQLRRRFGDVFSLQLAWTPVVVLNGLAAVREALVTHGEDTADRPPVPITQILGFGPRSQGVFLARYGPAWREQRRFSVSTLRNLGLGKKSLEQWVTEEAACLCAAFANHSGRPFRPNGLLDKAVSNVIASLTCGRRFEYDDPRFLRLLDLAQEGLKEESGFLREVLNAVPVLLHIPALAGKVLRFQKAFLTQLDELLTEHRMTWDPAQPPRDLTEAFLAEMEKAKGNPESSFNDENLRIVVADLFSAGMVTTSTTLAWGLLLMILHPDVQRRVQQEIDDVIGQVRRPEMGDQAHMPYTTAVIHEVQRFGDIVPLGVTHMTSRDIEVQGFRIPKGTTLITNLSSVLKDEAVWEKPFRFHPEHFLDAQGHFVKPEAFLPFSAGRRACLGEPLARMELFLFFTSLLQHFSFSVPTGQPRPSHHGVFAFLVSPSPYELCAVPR
CYP3A4, sequence (P08684 whole entry): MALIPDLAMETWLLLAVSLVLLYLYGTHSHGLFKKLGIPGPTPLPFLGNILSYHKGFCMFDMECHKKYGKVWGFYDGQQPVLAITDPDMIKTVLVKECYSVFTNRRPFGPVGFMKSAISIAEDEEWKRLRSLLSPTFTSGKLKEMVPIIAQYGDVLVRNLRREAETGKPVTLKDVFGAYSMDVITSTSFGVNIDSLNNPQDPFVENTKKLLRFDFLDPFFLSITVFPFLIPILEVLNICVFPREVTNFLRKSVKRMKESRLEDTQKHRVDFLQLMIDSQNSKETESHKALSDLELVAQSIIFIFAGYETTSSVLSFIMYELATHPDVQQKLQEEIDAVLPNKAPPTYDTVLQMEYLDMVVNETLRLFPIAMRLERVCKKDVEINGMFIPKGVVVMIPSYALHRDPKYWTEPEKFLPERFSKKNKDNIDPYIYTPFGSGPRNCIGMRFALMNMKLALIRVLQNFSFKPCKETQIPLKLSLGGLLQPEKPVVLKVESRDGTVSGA

As a reminder, the solubility is the dissolved amount per volume that the medium holds. One may read the IC50 as the point on the concentration scale where inhibition reaches its midpoint. On to `COc1ncnc(C2CC2)c1-c1ncc2c(n1)N(Cc1ccc(-c3nc(C(F)(F)F)cn3C)cc1)CC(=O)N2C` [Compound 11, 2-(4-cyclopropyl-6-methoxypyrimidin-5-yl)-5-methyl-8-(4-(1-methyl-4-(trifluoromethyl)-1H-imidazol-2-yl)benzyl)-7,8-dihydropteridin-6(5H)-one], for which, in data set [1], the hepatocyte CLint at 1 μM is under 1 µL/min/1e6 cells. Besides, the solubility at 2 h in data set [2] was 214 µM (≈ 118 µg/mL). In addition, the solubility at 24 h is 181 µM in data set [3] (read-out: Calculated solubility) and 99.7 µg/mL in data set [3] (read-out: Solubility). Besides, the IC50 at CYP2D6 and against CYP3A4 was over 30 µM throughout.
